Laboratory results reported in PMC7794549, “A capsaicinoid-based soft drug, AG1529, for attenuating TRPV1-mediated histaminergic and inflammatory sensory neuron excitability” (Scientific Reports, 2021).

Experiments:
Assay type in all cases: cell-based
hTRPA1 [1] = biological target: T1, hTRPA1 (Homo sapiens, UniProt O75762); experiment: whole-cell patch-clamp, AITC-evoked currents in HEK293 cells, […]
T1 construct: gene TRPA1

hTRPM8 = biological target: T2, hTRPM8 (Homo sapiens, UniProt Q7Z2W7); experiment: whole-cell patch-clamp, menthol-evoked currents in HEK293 cells; % block at […]
T2 construct: gene TRPM8

hTRPA1 [2] = biological target: T1, hTRPA1; experiment: whole-cell patch-clamp, AITC-evoked currents in HEK293 cells; % inhibition at […]
hTRPV1 = biological target: T3, hTRPV1 (Homo sapiens, UniProt Q8NER1); experiment: whole-cell patch-clamp, capsaicin-evoked currents in HEK293 cells expressing hTRPV1
T3 construct: gene TRPV1

rTRPV1 = biological target: T4, rTRPV1 (Rattus norvegicus, UniProt O35433); experiment: Ca2+ microfluorography
T4 construct: gene Trpv1
T4 sequence (O35433 whole entry): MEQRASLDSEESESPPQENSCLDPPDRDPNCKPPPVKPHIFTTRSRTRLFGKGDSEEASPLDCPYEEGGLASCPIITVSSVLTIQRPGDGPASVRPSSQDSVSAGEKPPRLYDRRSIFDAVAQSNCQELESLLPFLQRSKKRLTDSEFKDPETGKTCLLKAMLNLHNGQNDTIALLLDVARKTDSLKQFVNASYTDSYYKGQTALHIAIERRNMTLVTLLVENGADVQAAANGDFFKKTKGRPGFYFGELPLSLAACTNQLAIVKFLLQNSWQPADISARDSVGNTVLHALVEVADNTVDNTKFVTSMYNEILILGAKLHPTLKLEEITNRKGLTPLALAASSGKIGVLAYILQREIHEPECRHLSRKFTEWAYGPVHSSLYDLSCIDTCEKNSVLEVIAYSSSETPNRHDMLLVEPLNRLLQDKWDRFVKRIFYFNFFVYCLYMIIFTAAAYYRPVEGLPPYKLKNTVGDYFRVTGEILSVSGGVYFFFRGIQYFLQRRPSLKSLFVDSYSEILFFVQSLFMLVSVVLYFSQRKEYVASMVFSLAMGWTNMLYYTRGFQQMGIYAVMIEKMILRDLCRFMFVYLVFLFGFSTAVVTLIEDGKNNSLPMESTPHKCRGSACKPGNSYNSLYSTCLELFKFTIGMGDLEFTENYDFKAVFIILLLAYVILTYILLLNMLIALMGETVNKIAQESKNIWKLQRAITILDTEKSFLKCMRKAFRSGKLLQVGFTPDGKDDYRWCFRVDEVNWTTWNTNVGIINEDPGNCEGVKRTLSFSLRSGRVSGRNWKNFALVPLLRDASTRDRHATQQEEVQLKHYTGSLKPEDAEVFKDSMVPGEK

T1 sequence (O75762 whole entry): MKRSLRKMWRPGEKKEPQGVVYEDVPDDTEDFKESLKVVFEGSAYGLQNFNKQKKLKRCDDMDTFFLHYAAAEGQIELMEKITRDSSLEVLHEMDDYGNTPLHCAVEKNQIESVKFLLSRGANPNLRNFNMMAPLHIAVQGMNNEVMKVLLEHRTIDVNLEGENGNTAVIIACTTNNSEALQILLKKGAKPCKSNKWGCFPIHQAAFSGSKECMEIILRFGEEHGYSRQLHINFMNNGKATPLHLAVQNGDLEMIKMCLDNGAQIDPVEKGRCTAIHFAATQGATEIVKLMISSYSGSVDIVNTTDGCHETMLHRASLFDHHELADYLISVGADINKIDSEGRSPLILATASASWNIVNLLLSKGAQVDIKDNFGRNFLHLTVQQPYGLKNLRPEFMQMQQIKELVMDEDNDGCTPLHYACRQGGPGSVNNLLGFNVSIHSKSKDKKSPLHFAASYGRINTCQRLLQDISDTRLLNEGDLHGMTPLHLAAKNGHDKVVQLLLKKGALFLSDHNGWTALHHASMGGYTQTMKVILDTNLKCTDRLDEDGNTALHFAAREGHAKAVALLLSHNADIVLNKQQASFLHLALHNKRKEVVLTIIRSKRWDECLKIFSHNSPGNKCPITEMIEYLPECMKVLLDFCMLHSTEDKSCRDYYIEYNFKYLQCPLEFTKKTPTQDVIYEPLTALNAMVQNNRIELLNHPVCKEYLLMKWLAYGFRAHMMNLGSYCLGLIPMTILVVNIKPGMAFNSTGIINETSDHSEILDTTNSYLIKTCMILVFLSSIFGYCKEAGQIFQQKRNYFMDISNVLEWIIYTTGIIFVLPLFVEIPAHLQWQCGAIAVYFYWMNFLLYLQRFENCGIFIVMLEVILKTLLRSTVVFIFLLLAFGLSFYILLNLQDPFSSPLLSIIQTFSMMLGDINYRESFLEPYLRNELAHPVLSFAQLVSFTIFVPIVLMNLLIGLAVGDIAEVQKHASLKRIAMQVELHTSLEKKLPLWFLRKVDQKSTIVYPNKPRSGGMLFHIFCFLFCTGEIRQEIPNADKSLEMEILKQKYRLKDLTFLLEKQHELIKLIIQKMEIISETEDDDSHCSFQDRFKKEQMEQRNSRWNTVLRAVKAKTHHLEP
T3 sequence (Q8NER1 whole entry): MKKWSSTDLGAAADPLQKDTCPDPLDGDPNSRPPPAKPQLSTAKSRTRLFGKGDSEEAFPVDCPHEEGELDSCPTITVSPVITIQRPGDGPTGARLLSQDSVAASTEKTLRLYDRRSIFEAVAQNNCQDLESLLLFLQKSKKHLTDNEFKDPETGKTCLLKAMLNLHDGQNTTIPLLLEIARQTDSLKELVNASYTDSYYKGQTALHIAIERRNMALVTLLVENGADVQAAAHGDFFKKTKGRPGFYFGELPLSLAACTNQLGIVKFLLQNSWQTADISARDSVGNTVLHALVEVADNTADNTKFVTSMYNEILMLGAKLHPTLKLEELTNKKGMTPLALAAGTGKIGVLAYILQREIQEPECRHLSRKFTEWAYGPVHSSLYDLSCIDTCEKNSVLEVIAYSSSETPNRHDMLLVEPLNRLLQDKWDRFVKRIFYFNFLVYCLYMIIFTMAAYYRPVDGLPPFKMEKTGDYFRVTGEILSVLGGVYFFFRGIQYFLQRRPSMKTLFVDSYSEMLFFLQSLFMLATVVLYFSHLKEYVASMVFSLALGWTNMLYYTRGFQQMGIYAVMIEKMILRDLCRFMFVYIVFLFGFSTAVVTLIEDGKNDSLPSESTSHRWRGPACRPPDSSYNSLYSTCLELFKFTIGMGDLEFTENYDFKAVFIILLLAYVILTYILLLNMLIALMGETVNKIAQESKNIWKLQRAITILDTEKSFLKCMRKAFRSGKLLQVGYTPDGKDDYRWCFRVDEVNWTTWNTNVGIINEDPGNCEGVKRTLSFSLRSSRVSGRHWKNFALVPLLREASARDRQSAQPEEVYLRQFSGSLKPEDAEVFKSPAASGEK
T2 sequence (Q7Z2W7 whole entry): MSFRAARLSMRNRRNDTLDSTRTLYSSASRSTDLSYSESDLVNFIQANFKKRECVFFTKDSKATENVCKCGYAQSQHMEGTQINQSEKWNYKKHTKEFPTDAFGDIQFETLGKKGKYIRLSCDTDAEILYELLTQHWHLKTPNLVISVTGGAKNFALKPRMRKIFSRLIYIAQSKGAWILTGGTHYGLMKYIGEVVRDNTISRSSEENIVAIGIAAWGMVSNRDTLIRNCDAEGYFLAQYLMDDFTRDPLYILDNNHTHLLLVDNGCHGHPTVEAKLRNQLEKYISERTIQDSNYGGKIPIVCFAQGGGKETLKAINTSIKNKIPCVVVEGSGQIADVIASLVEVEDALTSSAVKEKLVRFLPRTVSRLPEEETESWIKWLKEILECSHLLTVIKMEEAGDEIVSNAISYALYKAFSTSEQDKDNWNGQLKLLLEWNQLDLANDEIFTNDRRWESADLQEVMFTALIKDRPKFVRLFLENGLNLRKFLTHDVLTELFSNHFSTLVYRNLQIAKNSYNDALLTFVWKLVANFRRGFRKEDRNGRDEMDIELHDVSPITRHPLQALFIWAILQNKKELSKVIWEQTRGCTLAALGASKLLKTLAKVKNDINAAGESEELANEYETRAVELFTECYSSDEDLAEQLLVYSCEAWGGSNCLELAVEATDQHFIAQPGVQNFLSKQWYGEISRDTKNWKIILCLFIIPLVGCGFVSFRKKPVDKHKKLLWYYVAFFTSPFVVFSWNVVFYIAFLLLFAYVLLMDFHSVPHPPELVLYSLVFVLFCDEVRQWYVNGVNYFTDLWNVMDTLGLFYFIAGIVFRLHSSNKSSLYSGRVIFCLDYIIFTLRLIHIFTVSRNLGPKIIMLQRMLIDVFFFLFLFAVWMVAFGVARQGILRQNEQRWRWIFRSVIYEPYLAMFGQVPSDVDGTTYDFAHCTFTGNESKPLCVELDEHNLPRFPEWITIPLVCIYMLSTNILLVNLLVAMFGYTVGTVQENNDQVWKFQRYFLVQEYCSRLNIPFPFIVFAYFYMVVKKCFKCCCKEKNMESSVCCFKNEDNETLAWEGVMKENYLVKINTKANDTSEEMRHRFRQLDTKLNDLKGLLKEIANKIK

SMILES	whole-cell patch-clamp, AITC-evoked currents in HEK293 cells, 5 μM (hTRPA1 [1])	% (hTRPM8)	inhibition at 10 µM (hTRPA1 [2])	IC50 (hTRPV1)	IC50 (rTRPV1)
CC(C)c1ccc(NC(=O)Cn2cnc3c2c(=O)n(C)c(=O)n3C)cc1 [HC030031, 1,2,3,6-Tetrahydro-1,3-dimethyl-N-[4-(1-methylethyl)phenyl]-2,6-dioxo-7H-purine-7-acetamide]	a reference TRPA1 antagonist, completely abrogated AITC-evoked ionic currents	–	–	–	–
CCCCCCCCCCCC(=O)OCC(=O)NCc1cc(OC)c(O)cc1I [AG1529, 2-((4-hydroxy-2-iodo-5-methoxybenzyl)amino)-2-oxoethyl dodecanoate]	–	~ 40%	~40%	900 ± 500 nM	900 ± 200 nM
